Results taken from patent US8227621B2, “Cyanine dyes and methods of use” (priority 2005, dated 2012).
Square brackets hold non-standard residues; d marks the D form. Peptide text beside a SMILES is read from it. NIR Reporter Dye A = not defined here; Sta = CC(C)C[C@H](N)[C@@H](O)CC(=O)O; Compound 6 = not defined here

Assays:
Format in all cases: biochemical
[1] = target: T1, HIV-1 protease (Human immunodeficiency virus type 1 group M subtype B, UniProt P04585); assay: Effect of DMSO and compound interferences on the HIV-1 protease assay; conditions: DMSO 0%, 2.5%, 5% and 10%; 2.5-80 nM protease
T1 construct: Recombinant HIV-1 protease; purchased BACHEM Biosciences
Experimental: To measure the tolerance of the HIV-1 protease assay to the presence of dimethyl sulfoxide (DMSO), 1 μM of substrate was incubated with 80 nM, 40 nM, 20 nM, 10 nM, 5 nM and 2.5 nM of HIV-1 protease in an assay buffer containing 10%, 5%, 2.5% or 0% DMSO. After incubation at 37° C. for 1.5 hours, the plate was treated with 0.8 M sodium phosphate stop buffer and then scanned on Aerius® System (LI-COR® Biosciences).
The robustness of the protease assay was evaluated against fluorescent, color quenching and light scattering interferences, which are the three major sources of compound interferences in high-throughput fluorescent assay screening. In these experiments, protease activity of the HIV-protease assay of the invention was measured in the presence of various amounts of the interference source and compared to that in the absence of the interference.
Fluorescein, a highly fluorescent compound, was chosen as the model fluorescent compound interference source. A series of fluorescein concentrations were mixed with the HIV-1 peptide substrate in the assay buffer system. These wells were then treated either with the enzyme (positive wells) or without the enzyme (negative wells) and incubated at 37° C. for 1 hour.

[2] = target: T2, BACE-1 protease enzyme (Homo sapiens, UniProt P56817); assay: Effect of DMSO concentration on BACE-1 enzyme activity; conditions: vs absence of DMSO
T2 construct: purchased Calbiochem
T2 sequence (P56817 46-457 limits assumed): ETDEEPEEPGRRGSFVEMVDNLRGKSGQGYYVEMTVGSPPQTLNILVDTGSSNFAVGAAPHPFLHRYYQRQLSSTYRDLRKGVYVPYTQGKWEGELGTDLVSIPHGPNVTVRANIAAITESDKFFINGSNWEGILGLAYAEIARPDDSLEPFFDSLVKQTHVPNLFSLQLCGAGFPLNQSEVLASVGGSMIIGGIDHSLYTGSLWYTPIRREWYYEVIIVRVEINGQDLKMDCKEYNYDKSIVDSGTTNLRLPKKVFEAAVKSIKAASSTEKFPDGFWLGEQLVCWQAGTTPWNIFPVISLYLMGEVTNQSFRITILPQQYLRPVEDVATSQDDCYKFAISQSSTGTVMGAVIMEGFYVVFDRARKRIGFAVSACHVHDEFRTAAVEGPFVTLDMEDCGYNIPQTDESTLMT
Experimental: In this experiment, the BACE-1 protease substrate having Structure IV (200 nM), was incubated with various amounts of BACE-1 protease enzyme (0 to 100 nM) and DMSO concentrations (e.g., 0, 2, 5 or 10%) at room temperature for 1 hour. The enzymatic reactions were then terminated upon the addition of stop buffer and the fluorescence intensities were measured on an Aerius® imaging system. The addition of stop buffer further diluted the DMSO concentrations in the reaction solution from 0, 2, 5, 10% DMSO to 0, 0.5, 1.25, 2.5%, respectively. The change in fluorescence intensity observed for the different DMSO concentrations is a reflection of the interference of DMSO on the BACE-1 enzyme activity. […] DMSO concentration increase to 5% and 10%, the BACE-1 enzyme activity decreased 20% and 35% respectively of the original enzyme activity at the absence of DMSO throughout the enzyme concentration range.

[3] = target: human recombinant β-secretase (BACE-1) (Homo sapiens, UniProt P56817); assay: BACE-1 enzyme inhibition assay; conditions: 100 nM BACE-1 mixture, 200 nM substrate Structure IV, room temperature 1 hour, Rodbard model
Sequence of human recombinant β-secretase (BACE-1) (Homo sapiens, UniProt P56817) (P56817 46-457 limits assumed): as above
Experimental: The BACE-1 assay buffer consists of 50 mM sodium acetate, 10 mM Tris-HCl, 10 mM NaCl, 0.002% Triton X-100, pH adjusted to 4.5. The BACE-1 stop buffer is a 0.8 M sodium phosphate buffer with 0.25 mg/mL BSA (pH 7.8). A characterized BACE-1 inhibitor, β-secretase inhibitor III, is purchased from Calbiochem (CA) (Cat # 565780). […] Two solid-state diode lasers at 680 nm and 780 nm are used as the excitation light sources and their corresponding fluorescence detection is accomplished by two silicon avalanche photodiodes at 710±10 nm and 810±10 nm. […]
The serially diluted solutions containing the BACE-1 peptide inhibitor (final concentrations from 0 to 2500 nM) were mixed with BACE-1 in BACE-1 assay buffer (total BACE-1 mixture final concentration of 100 nM) for 15 minutes followed by the addition of the BACE-1 protease substrate having Structure IV in a final concentration 200 nM. […] The fluorescence intensity was measured on Aerius® infrared imaging system (FIG. 22A).

[4] = test system: human recombinant β-secretase (BACE-1); assay: BACE-1 enzyme activity assay; conditions: 200 nM substrate, 400 nM BACE-1 mixture, 100 minutes
Experimental: Purified human recombinant β-secretase (BACE-1) is purchased from Calbiochem (CA). The batch size of 50 μg is supplied as a mixture of the ˜68-70 KDa proenzyme and the ˜65-67 KDa mature enzyme in lyophilized form from sterile-filtered 150 mM NaCl, 50 mM Tris-HCl, pH 7.5. The product is then re-constituted with 100 μL sterile water immediately prior to use.
The BACE-1 assay buffer consists of 50 mM sodium acetate, 10 mM Tris-HCl, 10 mM NaCl, 0.002% Triton X-100, pH adjusted to 4.5. […] A characterized BACE-1 inhibitor, β-secretase inhibitor III, is purchased from Calbiochem (CA) (Cat # 565780). […] Two solid-state diode lasers at 680 nm and 780 nm are used as the excitation light sources and their corresponding fluorescence detection is accomplished by two silicon avalanche photodiodes at 710±10 nm and 810±10 nm. […]
The effect of enzyme concentration on proteolytic activity of the β-secretase (β-site amyloid precursor protein cleaving enzyme 1; BACE-1), is shown in FIGS. 20A-C. […] The enzymatic reaction was stopped by addition of BACE-1 stop buffer and the fluorescence was recorded by Aerius® infrared imaging system. […] Based on the fluorescence standard curve obtained (FIG. 20B), the degree of hydrolysis of BACE-1 peptide was determined as 53%. With increased amount of hydrolysis, higher fluorescence increase is expected.

[5] = test system: trypsin; assay: NIR-dye labeled casein protease assay with trypsin; conditions: 10 μg/mL aprotinin; 20 nM casein conjugate, 5 μg/mL trypsin
Experimental: Casein-NIR Reporter Dye B concentration is 20 nM, trypsin concentration is 5 μg/mL, and aprotinin concentration varies from 10 μg/mL, 5 μg/mL, 1.25 μg/mL, 0.31 μg/mL, 78 ng/mL, 19.5 ng/mL, 4.9 ng/mL, to 1.2 ng/mL. Trypsin was pre-incubated with the inhibitors for 1 hour at 37° C.
Described below is a general method based on the over labeling of casein, with a near-infrared dye, i.e., NIR Reporter Dye B (a NIR-dye labeled casein substrate), for a protease activity microplate assay. The model protease assay uses the labeled casein as the substrate with trypsin as the enzyme, and the fluorescence emission is measured on a LI-COR® Biosciences' Aerius® microplate reader. NIR Reporter Dye B emits at 786 nm, yet it is still a very bright dye (see, FIG. 10).
The proteolytic reactions are carried out in 96-well plates with 50 mM TRIS buffer pH 7.8. […] (The reagent […] and its protein labeling and purification protocols are from LI-COR® Biosciences. Casein, trypsin, and aprotinin are all purchased from Sigma-Aldrich. Protein molecular weight markers labeled with a 700 nm fluorescence dye are from LI-COR® Biosciences.) The reactants are incubated at 37° C. for one hour and then stopped by adding aprotinin to 10 μg/mL final concentration. Then, after being spun, the plates are read on an the LI-COR® microplate reader Aerius®. […]

C[S+](C)[O-] [DMSO, dimethyl sulfoxide]
effect on cleavage of peptide substrate [1]: no significant effect
reduction of BACE-1 protease enzyme activity ([2]; DMSO 2%): ≤ 10%
decrease of BACE-1 enzyme activity ([2]; DMSO 5%): 20%
decrease of BACE-1 enzyme activity ([2]; DMSO 10%): 35%

CC(C)C[C@H](NC(=O)[C@H](CC(N)=O)NC(=O)[C@@H](NC(=O)[C@@H](N)CCC(=O)O)C(C)C)[C@@H](O)CC(=O)N[C@H](C(=O)N[C@@H](C)C(=O)N[C@@H](CCC(=O)O)C(=O)N[C@@H](Cc1ccccc1)C(N)=O)C(C)C [Statine-derived peptide inhibitor, H-Glu-Val-Asn-Statine-Val-Ala-Glu-Phe-NH2] (H-EVN[Sta]VAEF-NH2)
IC50 [3]: 0.057 µM

Structure IV: β-secretase (BACE-1) protease substrate peptide conjugated to NIR Reporter Dye A and Compound 6 (SEQ ID NO:5) ({NIR Reporter Dye A}-SEVNLDAEFRK(Compound 6)RR-OH; reading uncertain)
fluorescence intensity increase over substrate not treated by enzyme ([4]; room temperature): 12 fold
degree of hydrolysis of BACE-1 peptide ([4]; from fluorescence standard curve): 53%

aprotinin
fluorescence intensity change between total trypsin activity suppression and no inhibition [5]: more than 20 fold
